In US20090048293A1 (priority 2005, published 2009):
“And” between values parts separate entries of the source, which are not always exact repeats. Identical values can stand only once. “Also recorded” adds a separate entry of the source. Like-named read-outs stand apart in the source and are kept apart here. Where a SMILES comes first, the peptide text is derived from it. [ ]: non-standard residue; d: D form. The star is where a group is joined. Sta = CC(C)C[C@H](N)[C@@H](O)CC(=O)O; Isovaleryl = CC(C)CC(=O)*

Tests used:
Npr599 = format: biochemical, Bacillus anthracis
InhA = format: biochemical, Bacillus anthracis
[1] = test system: syndecan-1 ectodomain shedding from NMuMG cells; format: cell-based, murine
[2] = test system: syndecan-1 shedding of NMuMG cells; format: cell-based, murine
TLR2 = format: cell-based

Structure (SMILES): Cl.N[C@@H](CS)C(=O)O [L-Cysteine.HCl]
- Effect on Npr599 caseinolytic activity (in words) (Npr599; 1 mM): no substantial inhibiting activity
- Effect on InhA caseinolytic activity (in words) (InhA; 1 mM): no substantial inhibiting activity

Structure (SMILES): [Zn+2] [Zn2+]
- Effect on Npr599 caseinolytic activity (in words) (Npr599): inhibit
- Effect on InhA caseinolytic activity (in words) (InhA): inhibit

Structure (SMILES): O=C1c2ccccc2-c2n[nH]c3cccc1c23 [JNK inhibitor, JNK inhibitor II]
- Effect on protease-enhanced syndecan-1 release (in words) [1]: strongly inhibits
- Effect on protease-enhanced syndecan-1 shedding (in words) [1]: some stimulatory effect

Structure (SMILES): CC(C)CC(=O)N[C@H](C(=O)N[C@H](C(=O)N[C@@H](CC(C)C)[C@@H](O)CC(=O)N[C@@H](C)C(=O)N[C@@H](CC(C)C)[C@@H](O)CC(=O)O)C(C)C)C(C)C [Pepstatin A, pepstatin A] (Isovaleryl-VV[Sta]A[Sta]-OH)
- Remaining protease activity (%) Npr599 (Npr599): 67.6% and 75.3% and 77.9%

Structure (SMILES): CNC(=O)[C@H](Cc1c[nH]c2ccccc12)NC(=O)[C@@H](CC(=O)NO)CC(C)C [Galardin, Galardin (Ilomastat)]
- Effect on Npr599 caseinolytic activity (in words) (Npr599): inhibits Npr599 activity strongly
- Effect on InhA caseinolytic activity (in words) (InhA): less sensitive; also recorded: not InhA activity significantly
- Remaining protease activity (%) InhA (InhA): 70.5% and 104% and 103.3%
- Effect on Npr599-activated syndecan-1 shedding (in words) [1]: abrogate
- Effect on AnlO-induced syndecan-1 shedding (in words) [2]: reduce

Structure (SMILES): [Mg+2] [Mg2+]
- Effect on Npr599 caseinolytic activity (in words) (Npr599): do not
- Remaining activity (%) Npr599 (Npr599): 83 (2.8) % and 97 (1.4) %
- Effect on InhA caseinolytic activity (in words) (InhA): do not
- Remaining activity (%) InhA (InhA): 76 (6.1) % and 97 (1.7) %

Structure (SMILES): CCCCCCCCCCCCOS(=O)(=O)[O-].[Na+] [SDS]
- Activation of Npr599 (Npr599; 3.5 μM): approximately 2.4 fold

Structure (SMILES): COc1cccc(-c2cc(=O)c3ccccc3o2)c1N [PD98059]
- Effect on protease-enhanced syndecan-1 release (in words) [1]: strongly inhibits
- Effect on protease-enhanced syndecan-1 shedding (in words) [1]: some stimulatory effect

Structure (SMILES): CC(=O)N[C@@H](CC(C)C)C(=O)N[C@@H](CC(C)C)C(=O)N[C@H](C=O)CCCNC(=N)N [Leupeptin, leupeptin]
- Remaining protease activity (%) Npr599 (Npr599): 95.4% and 106.2%
- Remaining protease activity (%) InhA (InhA): 75.1% and 105.6% and 111.4%

Structure (SMILES): Cc1ccc(C(=O)Nc2ccc(S(=O)(=O)O)c3cc(S(=O)(=O)O)cc(S(=O)(=O)O)c23)cc1NC(=O)c1cccc(NC(=O)Nc2cccc(C(=O)Nc3cc(C(=O)Nc4ccc(S(=O)(=O)O)c5cc(S(=O)(=O)O)cc(S(=O)(=O)O)c45)ccc3C)c2)c1 [suramin]
- Effect on syndecan-1 shedding induced by proteases (in words) [1]: effectively inhibits
- Effect on syndecan shedding (in words) ([1]; 20 μM): stimulates
- Effect on AnlO-induced syndecan-1 shedding (in words) [2]: reduce
- Effect on LeTx-induced syndecan-1 shedding (in words) [2]: reduce

Structure (SMILES): [Cu+2] [Cu2+]
- Effect on Npr599 caseinolytic activity (in words) (Npr599): inhibit
- Remaining activity (%) Npr599 (Npr599): 1 (1.0) % and 0 (0.0) %
- Effect on InhA caseinolytic activity (in words) (InhA): inhibit
- Remaining activity (%) InhA (InhA): 0 (0.0) %

Structure (SMILES): CC(C)C[C@H](NC(=O)[C@H]1O[C@@H]1C(=O)O)C(=O)NCCCCN=C(N)N [E-64]
- Remaining protease activity (%) Npr599 (Npr599): 74.1% and 76.1% and 79.5%
- Remaining protease activity (%) InhA (InhA): 59.1% and 78.4% and 83.5%

Structure (SMILES): [Ca+2] [Ca2+]
- Effect on Npr599 caseinolytic activity (in words) (Npr599): do not
- Remaining activity (%) Npr599 (Npr599): 86 (1.5) % and 97 (1.4) %
- Effect on InhA caseinolytic activity (in words) (InhA): do not
- Remaining activity (%) InhA (InhA): 91 (5.2) % and 94 (3.5) %

Structure (SMILES): O=S(=O)(F)Cc1ccccc1 [PMSF, phenylmethanesulfonyl fluoride]
- Remaining protease activity (%) Npr599 (Npr599): 88.2% and 100.9% and 87.2%
- Remaining protease activity (%) InhA (InhA): 111.1% and 109.8% and 94.7%

Structure (SMILES): [Ni+2] [Ni2+]
- Remaining activity (%) Npr599 (Npr599): 46 (1.4) % and 77 (1.4) %
- Remaining activity (%) InhA (InhA): 45 (3.4) % and 69 (1.3) %

Structure (SMILES): O=C(O)CN(CCN(CC(=O)O)CC(=O)O)CC(=O)O [EDTA, ethylenediaminetetraacetic acid]
- Effect on Npr599 caseinolytic activity (in words) (Npr599): rapidly inhibited
- Remaining protease activity (%) Npr599 (Npr599): 6.5% and 9.5% and 10.5%
- Effect on InhA caseinolytic activity (in words) (InhA): rapidly inhibited
- Remaining protease activity (%) InhA (InhA): 28.2% and 28.7% and 33.1%

Structure (SMILES): CC(C)C[C@H](NP(=O)(O)O[C@@H]1O[C@@H](C)[C@H](O)[C@@H](O)[C@H]1O)C(=O)N[C@@H](Cc1c[nH]c2ccccc12)C(=O)O [Phosphoramidon, phosphoramidon]
- Effect on InhA caseinolytic activity (in words) (InhA): less sensitive
- Remaining protease activity (%) InhA (InhA): 45.3% and 80.3% and 87.1%
- Effect on Npr599-activated syndecan-1 shedding (in words) [1]: abrogate

Structure (SMILES): [Mn+2] [Mn2+]
- Effect on Npr599 caseinolytic activity (in words) (Npr599): do not
- Remaining activity (%) Npr599 (Npr599): 79 (0.2) % and 96 (4.3) %
- Effect on InhA caseinolytic activity (in words) (InhA): do not
- Remaining activity (%) InhA (InhA): 103 (2.5) % and 91 (5.1) %

Structure (SMILES): [Fe+2] [Fe2+]
- Effect on Npr599 caseinolytic activity (in words) (Npr599): inhibit
- Effect on InhA caseinolytic activity (in words) (InhA): inhibit

Structure (SMILES): c1cnc2c(c1)ccc1cccnc12 [1,10-phenanthroline, 1, 10-phenanthroline]
- Effect on Npr599 caseinolytic activity (in words) (Npr599): rapidly inhibited
- Effect on Npr599 caseinolytic activity (in words) (Npr599; 1 mM): completely abolishes
- Effect on InhA caseinolytic activity (in words) (InhA): rapidly inhibited
- Remaining protease activity (%) InhA (InhA): 0%
- Effect on InhA caseinolytic activity (in words) (InhA; 1 mM): completely abolishes
- Effect on Npr599-activated syndecan-1 shedding (in words) [1]: abrogate
- Effect on AnlO-induced syndecan-1 shedding (in words) [2]: reduce
- Effect on LeTx-induced syndecan-1 shedding (in words) [2]: reduce
- Effect on TLR2 signaling stimulated by B. anthracis culture supernatant (in words) (TLR2): abrogated

Structure (SMILES): OCCS [b-mercaptoethanol, β-mercaptoethanol]
- Remaining protease activity (%) Npr599 (Npr599): 85.4% and 133.4% and 120.7%
- Effect on Npr599 caseinolytic activity (in words) (Npr599; 1 mM): no substantial inhibiting activity
- Remaining protease activity (%) InhA (InhA): 85.8% and 105.8% and 113.4%
- Effect on InhA caseinolytic activity (in words) (InhA; 1 mM): no substantial inhibiting activity

Structure (SMILES): O[C@@H](CS)[C@@H](O)CS [DTT]
- Effect on Npr599 caseinolytic activity (in words) (Npr599): inhibits
- Effect on InhA caseinolytic activity (in words) (InhA): inhibits
